Key:
[1] = Potential characterization of nucleic acid lipid nanoparticle preparations; format: physicochemical
Procedure, shortened: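 Zeta potential was read on a Malvern ZEN3700 after diluting 20 μL lipid nanoparticle solution (about 0.04 mg/mL mRNA) into 780 μL ultrapure water. Alternatively, a 27.5 μL sample in 200 μL water was first sized by dynamic light scattering, then diluted with 600 μL more water for potential measurement.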

[2] = tested on: mice; assay: In vivo delivery of FLuc-mRNA lipid nanoparticles in mice, in vivo imaging (IVIS)
Procedure, shortened: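 Mice (n=3) received about 75 μL FLuc-mRNA LNP per mouse intramuscularly (rectus femoris), intravenously (tail vein), intraperitoneally or subcutaneously (back). After injection, D-luciferin (200 μL, 15 mg/mL) was given i.p. 10-15 min before IVIS imaging.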

[3] = Particle size and PDI of nucleic acid lipid nanoparticle preparations by dynamic light scattering; format: physicochemical
Procedure, shortened: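 LNP solution (about 0.04 mg/mL mRNA before dilution) was diluted in ultrapure water and mixed by gentle pipetting. Particle size and PDI were then measured by dynamic light scattering.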

[4] = mRNA LNP, 1.00:10.00:33.00:56.00, N/P 42
[5] = mRNA LNP, 1.40:11.15:38.95:48.50, N/P 30
[6] = mRNA LNP, 1.00:10.00:33.00:56.00, N/P 42, IV, liver
[7] = mRNA LNP, 1.00:10.00:33.00:56.00, N/P 42, IV, lung
[8] = mRNA LNP, 1.00:10.00:33.00:56.00, N/P 42, IV, spleen
[9] = mRNA LNP, 1.40:11.15:38.95:48.50, N/P 30, IV, liver
[10] = mRNA LNP, 1.40:11.15:38.95:48.50, N/P 30, IV, lung
[11] = mRNA LNP, 1.40:11.15:38.95:48.50, N/P 30, IV, spleen
[12] = DMG-PEG2000:DPPC:Chol:compound 1.40:11.15:38.95:48.50, N/P 30
[13] = mPEG-DMPE:DOPE:Chol:compound 1.40:11.15:38.95:48.50, N/P 24
[14] = DMG-PEG2000:DSPC:Chol:compound 1.40:11.15:38.95:48.50, N/P 30
[15] = IM, DMG-PEG2000:DSPC:Chol:compound 1.40:11.15:38.95:48.50, N/P 30, Fluc-mRNA
[16] = IV, body, DMG-PEG2000:DSPC:Chol:compound 1.40:11.15:38.95:48.50, N/P 30, Fluc-mRNA
[17] = IV, liver, DMG-PEG2000:DSPC:Chol:compound 1.40:11.15:38.95:48.50, N/P 30
[18] = IV, liver, DMG-PEG2000:DSPC:Chol:compound 1.40:11.15:38.95:48.50, N/P 30, Fluc-mRNA
[19] = IV, lung, DMG-PEG2000:DSPC:Chol:compound 1.40:11.15:38.95:48.50, N/P 30
[20] = IV, lung, DMG-PEG2000:DSPC:Chol:compound 1.40:11.15:38.95:48.50, N/P 30, Fluc-mRNA
[21] = IV, spleen, DMG-PEG2000:DSPC:Chol:compound 1.40:11.15:38.95:48.50, N/P 30
[22] = IV, spleen, DMG-PEG2000:DSPC:Chol:compound 1.40:11.15:38.95:48.50, N/P 30, Fluc-mRNA
[23] = DMG-PEG2000:DSPC:Chol:compound 1.40:11.15:38.95:48.50, N/P 20

CCCCCCCCCCCCNC(=O)CCN(CCCN(C)CCCN(CCC(=O)NCCCCCCCCCCCC)CCC(=O)NCCCCCCCCCCCC)CCC(=O)NCCCCCCCCCCCC [L0263-Control, reference compound]
Zeta potential (mV) [1, 4]: 11.13 mV
Zeta potential (mV) [1, 5]: 10.97 mV
% of organ targeting [2, 6]: 0.59%
IVIS [2, 6]: 5.33E+06
% of organ targeting [2, 7]: 97.16%
IVIS [2, 7]: 8.80E+08
% of organ targeting [2, 8]: 2.25%
IVIS [2, 8]: 2.04E+07
IVIS ([2]; mRNA LNP, 1.40:11.15:38.95:48.50, N/P 30, IM, organ not given): 7.79E+05
% of organ targeting [2, 9]: 1.59%
IVIS [2, 9]: 3.11E+06
% of organ targeting [2, 10]: 80.11%
IVIS [2, 10]: 1.57E+08
% of organ targeting [2, 11]: 18.30%
IVIS [2, 11]: 3.59E+07
IVIS ([2]; mRNA LNP, DMG-PEG2000:DSPC:Chol:lipid 1.00:10.00:33.00:56.00, N/P 42, IV, body): 1.28E+08
IVIS ([2]; mRNA LNP, DMG-PEG2000:DSPC:Chol:lipid 1.40:11.15:38.95:48.50, N/P 30, IV, body): 5.69E+07
PDI [3, 4]: 0.13
Particle size (nm) [3, 4]: 112.27 nm
PDI [3, 5]: 0.16
Particle size (nm) [3, 5]: 102.50 nm

CCCCCCCCCCCCN(C)C(=O)C(O)CN(CCN(C)CCN(CC(O)C(=O)N(C)CCCCCCCCCCCC)CC(O)C(=O)N(C)CCCCCCCCCCCC)CC(O)C(=O)N(C)CCCCCCCCCCCC (centres unmarked) [Compound L0344]
Zeta potential (mV) [1, 12]: 16.13 mV
IVIS ([2]; IM, DMG-PEG2000:DPPC:Chol:compound 1.40:11.15:38.95:48.50, N/P 30, Fluc-mRNA): 8.28E+04
IVIS ([2]; IV, body, DMG-PEG2000:DPPC:Chol:compound 1.40:11.15:38.95:48.50, N/P 30, Fluc-mRNA): 1.91E+06
% of organ targeting ([2]; IV, liver, DMG-PEG2000:DPPC:Chol:compound 1.40:11.15:38.95:48.50, N/P 30): 2.01%
IVIS ([2]; IV, liver, DMG-PEG2000:DPPC:Chol:compound 1.40:11.15:38.95:48.50, N/P 30, Fluc-mRNA): 1.15E+05
% of organ targeting ([2]; IV, lung, DMG-PEG2000:DPPC:Chol:compound 1.40:11.15:38.95:48.50, N/P 30): 93.07%
IVIS ([2]; IV, lung, DMG-PEG2000:DPPC:Chol:compound 1.40:11.15:38.95:48.50, N/P 30, Fluc-mRNA): 5.32E+06
% of organ targeting ([2]; IV, spleen, DMG-PEG2000:DPPC:Chol:compound 1.40:11.15:38.95:48.50, N/P 30): 4.92%
IVIS ([2]; IV, spleen, DMG-PEG2000:DPPC:Chol:compound 1.40:11.15:38.95:48.50, N/P 30, Fluc-mRNA): 2.81E+05
PDI [3, 12]: 0.26
Particle size (nm) [3, 12]: 89.56 nm

CCCCCCCCCCN(C)C(=O)C(O)CN(CCCN(C)CCCN(CC(O)C(=O)N(C)CCCCCCCCCC)CC(O)C(=O)N(C)CCCCCCCCCC)CC(O)C(=O)N(C)CCCCCCCCCC (centres unmarked) [Compound L0347]
Zeta potential (mV) [1, 13]: 10.83 mV
IVIS ([2]; IM, mPEG-DMPE:DOPE:Chol:compound 1.40:11.15:38.95:48.50, N/P 24, Fluc-mRNA): 6.65E+04
IVIS ([2]; IV, body, mPEG-DMPE:DOPE:Chol:compound 1.40:11.15:38.95:48.50, N/P 24, Fluc-mRNA): 3.20E+06
% of organ targeting ([2]; IV, liver, mPEG-DMPE:DOPE:Chol:compound 1.40:11.15:38.95:48.50, N/P 24): 1.47%
IVIS ([2]; IV, liver, mPEG-DMPE:DOPE:Chol:compound 1.40:11.15:38.95:48.50, N/P 24, Fluc-mRNA): 1.56E+05
% of organ targeting ([2]; IV, lung, mPEG-DMPE:DOPE:Chol:compound 1.40:11.15:38.95:48.50, N/P 24): 86.45%
IVIS ([2]; IV, lung, mPEG-DMPE:DOPE:Chol:compound 1.40:11.15:38.95:48.50, N/P 24, Fluc-mRNA): 9.16E+06
% of organ targeting ([2]; IV, spleen, mPEG-DMPE:DOPE:Chol:compound 1.40:11.15:38.95:48.50, N/P 24): 12.08%
IVIS ([2]; IV, spleen, mPEG-DMPE:DOPE:Chol:compound 1.40:11.15:38.95:48.50, N/P 24, Fluc-mRNA): 1.28E+06
PDI [3, 13]: 0.10
Particle size (nm) [3, 13]: 148.60 nm

CCCCCCCCCCNC(=O)C(O)CN(CCCN(CCCN(CC(O)C(=O)NCCCCCCCCCC)CC(O)C(=O)NCCCCCCCCCC)C(CO)CO)CC(O)C(=O)NCCCCCCCCCC (centres unmarked) [Compound L0287]
Zeta potential (mV) [1, 14]: 14.13 mV
IVIS [2, 15]: 1.81E+06
IVIS [2, 16]: 1.89E+07
% of organ targeting [2, 17]: 34.55%
IVIS [2, 18]: 3.26E+06
% of organ targeting [2, 19]: 25.98%
IVIS [2, 20]: 2.45E+06
% of organ targeting [2, 21]: 39.46%
IVIS [2, 22]: 3.72E+06
PDI [3, 14]: 0.18
Particle size (nm) [3, 14]: 137.37 nm

CCCCCCCCCCOC(=O)C(O)CN(CCCN(CC(O)C(=O)OCCCCCCCCCC)CC(O)C(=O)OCCCCCCCCCC)CCCN(CC(O)C(=O)OCCCCCCCCCC)CC(O)C(=O)OCCCCCCCCCC (centres unmarked) [Compound L0339]
Zeta potential (mV) [1, 14]: 12.37 mV
IVIS [2, 15]: 8.33E+07
IVIS [2, 16]: 5.92E+07
% of organ targeting [2, 17]: 28.78%
IVIS [2, 18]: 1.17E+07
% of organ targeting [2, 19]: 0.41%
IVIS [2, 20]: 1.67E+05
% of organ targeting [2, 21]: 70.81%
IVIS [2, 22]: 2.87E+07
PDI [3, 14]: 0.15
Particle size (nm) [3, 14]: 126.63 nm

CCCCCCCCCCCCCCOC(=O)C(O)CN(CCN(C)CCN(CC(O)C(=O)OCCCCCCCCCCCCCC)CC(O)C(=O)OCCCCCCCCCCCCCC)CC(O)C(=O)OCCCCCCCCCCCCCC (centres unmarked) [Compound L0338]
Zeta potential (mV) [1, 14]: 19.13 mV
IVIS [2, 15]: 3.98E+05
IVIS [2, 16]: 8.55E+06
% of organ targeting [2, 17]: 11.14%
IVIS [2, 18]: 8.81E+05
% of organ targeting [2, 19]: 3.68%
IVIS [2, 20]: 2.91E+05
% of organ targeting [2, 21]: 85.18%
IVIS [2, 22]: 6.73E+06
PDI [3, 14]: 0.22
Particle size (nm) [3, 14]: 96.63 nm

CCCCCCCCCCOC(=O)C(O)CN(CCOCCN(CC(O)C(=O)OCCCCCCCCCC)CC(O)C(=O)OCCCCCCCCCC)CC(O)C(=O)OCCCCCCCCCC (centres unmarked) [Compound L0314]
Zeta potential (mV) [1, 23]: 11.33 mV
IVIS ([2]; IM, DMG-PEG2000:DSPC:Chol:compound 1.40:11.15:38.95:48.50, N/P 20, Fluc-mRNA): 3.31E+05
IVIS ([2]; IV, organ not given, DMG-PEG2000:DSPC:Chol:compound 1.40:11.15:38.95:48.50, N/P 20, Fluc-mRNA): 2.35E+05
PDI [3, 23]: 0.26
Particle size (nm) [3, 23]: 559.3 nm

CCCCCCOC(C)OCCCCCCOC(=O)C(O)CN(CCCN(CC(O)C(=O)OCCCCCCOC(C)OCCCCCC)CC(O)C(=O)OCCCCCCOC(C)OCCCCCC)CCCN(CC(O)C(=O)OCCCCCCOC(C)OCCCCCC)CC(O)C(=O)OCCCCCCOC(C)OCCCCCC (centres unmarked) [Compound L0340]
Zeta potential (mV) [1, 14]: 4.11 mV
IVIS [2, 15]: 4.87E+07
IVIS [2, 16]: 9.07E+07
% of organ targeting [2, 17]: 65.77%
IVIS [2, 18]: 2.85E+07
% of organ targeting [2, 19]: 1.45%
IVIS [2, 20]: 6.29E+05
% of organ targeting [2, 21]: 32.78%
IVIS [2, 22]: 1.42E+07
PDI [3, 14]: 0.12
Particle size (nm) [3, 14]: 125.77 nm

From US12233161B1, “Lipids and lipid nanoparticle formulations” (LONGUIDE BIOPHARMA CORPORATION, priority 2024, dated 2025)
